Data published in PMC11772769, “Selective cargo and membrane recognition by SNX17 regulates its interaction with Retriever” (EMBO Reports, 2024).
Positions count from the first letter of the chain named. Like-named read-outs stand apart in the source and are kept apart here. Where no end group is shown, it is not given here.

What was measured:
MBP-SNX17V380D = biological target: T1, MBP-SNX17V380D (Homo sapiens, UniProt Q15036, V380D); assay: Fluorescence anisotropy binding of 5-FAM peptides to MBP-SNX17 V380D
T1 construct: M protein marker, R Retriever complex, FL full-length; His (N, cleaved yes); made in house; host or cells: Escherichia coli BL21(DE3)
T1 sequence (Q15036 1-470 V380D): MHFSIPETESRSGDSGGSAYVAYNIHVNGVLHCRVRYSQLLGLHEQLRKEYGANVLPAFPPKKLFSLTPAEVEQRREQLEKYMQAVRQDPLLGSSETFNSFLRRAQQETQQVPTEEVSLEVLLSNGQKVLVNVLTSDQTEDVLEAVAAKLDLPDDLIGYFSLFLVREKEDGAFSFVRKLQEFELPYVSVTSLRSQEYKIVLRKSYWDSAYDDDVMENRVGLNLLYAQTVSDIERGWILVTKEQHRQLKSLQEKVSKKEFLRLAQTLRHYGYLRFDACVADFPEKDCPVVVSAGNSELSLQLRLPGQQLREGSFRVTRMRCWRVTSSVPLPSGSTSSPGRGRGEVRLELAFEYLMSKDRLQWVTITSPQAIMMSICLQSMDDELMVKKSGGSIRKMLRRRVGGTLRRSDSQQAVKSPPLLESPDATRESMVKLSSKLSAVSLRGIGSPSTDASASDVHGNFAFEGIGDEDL
Procedure: (§1) Lyophilized peptides were resuspended in 100 mM Hepes pH 8.0 at 5 mg/ml and further diluted in the assay buffer (50 mM Hepes pH 7.5, 300 mM NaCl, and 1 mM DTT). […] The mixture was incubated at 25 °C for at least 30 min and then transferred to 96 Flat Black plates. Fluorescence anisotropy was measured at 25 °C using Spark 10M Plate Reader (Tecan) with a 485/20 excitation filter and a 535/35 emission filter. The dissociation constants were calculated in GraphPad Prism by nonlinear regression fitting of the experimental data to a one-site total binding model. The final KD measurement is the mean of at least two independent experiments.

MBP-SNX17N459A+F462A = biological target: T2, MBP-SNX17N459A+F462A (Homo sapiens, UniProt Q15036, F462A/N459A); assay: Fluorescence anisotropy binding of 5-FAM peptides to MBP-SNX17 N459A+F462A
T2 construct: M protein marker, R Retriever complex, FL full-length; His (N, cleaved yes); made in house; host or cells: Escherichia coli BL21(DE3)
T2 sequence (Q15036 1-470 N459A/F462A): T1 sequence (Q15036 1-470 V380D) with D380V, N459A, F462A
Procedure: as §1

KLITYDNPAYEGID [L2 14-mer]
Kd (MBP-SNX17V380D; 0.1 μM 5-FAM peptide, pH 7.5, 300 mM NaCl, 25 °C, one-site total binding, Bmax fixed at 240, three biological replicates (Fig. 4E)): > 32 µM
Kd (MBP-SNX17V380D; 5-FAM peptide, replicate Y1, sheet KD-L2-14-mer, unit inferred, read-out: KD MBP-SNX17V380D): > 32 µM
Kd (MBP-SNX17V380D; 5-FAM peptide, replicate Y2, sheet KD-L2-14-mer, unit inferred, read-out: KD MBP-SNX17V380D): > 32 µM
Kd (MBP-SNX17V380D; 5-FAM peptide, replicate Y3, sheet KD-L2-14-mer, unit inferred, read-out: KD MBP-SNX17V380D): > 32 µM
Kd (MBP-SNX17N459A+F462A): 0.6 ± 0.1 µM
